# Read-outs that look alike come from different tables or passages of the source.
# Assays:
# [1] = molecular target: SHP-2 enzyme (Met1-Leu525) (Homo sapiens (Human), UniProt Q06124); assay: SHP2 inhibition enzymatic assay; assay type: biochemical; conditions: 0.5 nM SHP-2 activated by 500 nM IRS1 peptide, 75 μM DiFMUP substrate; read-out: SHP2wt-IC50
# Summary of the method: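 SHP-2 (Met1-Leu525), 0.5 nM, activated with 500 nM IRS1 bis-phosphopeptide, preincubated 30 min with compounds in HEPES pH 7.2 buffer with 5 mM DTT. 75 μM DiFMUP added for 30 min at room temperature, stopped with bpV; fluorescence read. IC50 from four-parameter logistic fit of % inhibition.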
# [2] = tested on: ERK phosphorylation in KYSE-520 cells; assay: Phospho-ERK cellular assay; assay type: cell-based; conditions: read-out: PERK IC50
# Summary of the method: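 TR-FRET read-out of ERK1/2 Thr202/Tyr204 phosphorylation was taken after overnight antibody incubation at room temperature. Before that, KYSE-520 cells were treated 2 h at 37 °C with compound dilutions and lysed 30 min. Percent inhibition relative to vehicle and cell-free wells was fitted four-parametrically to give IC50.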
# [3] = Homo sapiens, KYSE-520, 2 h, KYSE-520 cells, 2 h at 37° C., phospho-ERK1/2 (Thr202/Tyr204) TR-FRET
# [4] = KYSE-520 cells, 2 h at 37° C., phospho-ERK1/2 (Thr202/Tyr204) TR-FRET
# Sequence of SHP-2 enzyme (Met1-Leu525) (Q06124 1-525): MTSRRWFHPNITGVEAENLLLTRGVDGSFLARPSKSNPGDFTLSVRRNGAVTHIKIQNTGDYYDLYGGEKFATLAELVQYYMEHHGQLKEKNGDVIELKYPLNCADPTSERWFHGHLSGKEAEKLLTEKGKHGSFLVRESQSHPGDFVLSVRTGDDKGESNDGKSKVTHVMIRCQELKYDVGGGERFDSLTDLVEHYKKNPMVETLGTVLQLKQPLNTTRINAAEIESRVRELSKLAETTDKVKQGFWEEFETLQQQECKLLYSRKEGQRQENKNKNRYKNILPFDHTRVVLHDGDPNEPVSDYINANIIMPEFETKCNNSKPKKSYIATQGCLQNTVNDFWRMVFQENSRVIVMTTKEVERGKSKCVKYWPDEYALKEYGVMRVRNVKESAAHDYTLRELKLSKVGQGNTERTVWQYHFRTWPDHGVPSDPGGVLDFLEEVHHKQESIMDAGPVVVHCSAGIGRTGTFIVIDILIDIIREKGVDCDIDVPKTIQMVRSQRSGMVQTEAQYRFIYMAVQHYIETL
IC50 [1] [nM],"IC50 [2, 3] [nM]","IC50 [2, 4] [nM]",SMILES,"IC50 ([2]; Homo sapiens, KYSE-520, 2 h) [nM]"
< 500,< 1000,–,"NC[C@]1(c2ccccc2F)[C@@H]2CCN(c3cnc4c(-c5ccnc6cnccc56)n[nH]c4n3)C[C@@H]21 [Example 155, ((1S,6R,7R)-3-(3-(1,7-naphthyridin-4-yl)-1H-pyrazolo[3,4-b]pyrazin-6-yl)-7-(2-fluorophenyl)-3-azabicyclo[4.1.0]heptan-7-yl)methanamine]",–
< 500,< 1000,–,"CNC(=O)c1ccc(-c2n[nH]c3nc(N4CC[C@@H]5[C@H](C4)[C@@]5(CN)c4cccc(F)c4F)cnc23)c2cccnc12 [Example 267, 5-(6-((1S,6R,7R)-7-(aminomethyl)-7-(2,3-difluorophenyl)-3-azabicyclo[4.1.0]heptan-3-yl)-1H-pyrazolo[3,4-b]pyrazin-3-yl)-N-methylquinoline-8-carboxamide]",–
< 500,< 1000,–,"Cn1cc2cc(-c3ccc4nc(N5CC[C@@H]6[C@H](C5)[C@@]6(CN)c5ccccc5F)cnc4n3)ccc2n1 [Example 415, ((1S,6R,7R)-7-(2-fluorophenyl)-3-(6-(2-methyl-2H-indazol-5-yl)pyrido[2,3-b]pyrazin-2-yl)-3-azabicyclo[4.1.0]heptan-7-yl)methanamine]",–
< 500,< 1000,–,"Cc1cc([C@@]2(CN)[C@@H]3CCN(c4cnc5c(-c6ccnc7ccc(F)cc67)n[nH]c5n4)C[C@@H]32)no1 [Example 39, ((1S,6R,7S)-3-(3-(6-fluoroquinolin-4-yl)-1H-pyrazolo[3,4-b]pyrazin-6-yl)-7-(5-methylisoxazol-3-yl)-3-azabicyclo[4.1.0]heptan-7-yl)methanamine]",–
< 500,< 1000,–,"Cn1ccc2c(Cl)c(-c3n[nH]c4nc(N5CC[C@@H]6[C@H](C5)[C@@]6(CN)c5ccccc5F)cnc34)ccc2c1=O [Example 336, 6-(6-((1S,6R,7R)-7-(aminomethyl)-7-(2-fluorophenyl)-3-azabicyclo[4.1.0]heptan-3-yl)-1H-pyrazolo[3,4-b]pyrazin-3-yl)-5-chloro-2-methylisoquinolin-1(2H)-one]",–
< 500,< 1000,–,"Cc1nc2ccc(-c3n[nH]c4nc(N5C[C@@H]6[C@H](C5)[C@@]6(CN)c5ccccn5)cnc34)c(Cl)c2s1 [Example 492, ((1R,5S,6r)-3-(3-(7-chloro-2-methylbenzo[d]thiazol-6-yl)-1H-pyrazolo[3,4-b]pyrazin-6-yl)-6-(pyridin-2-yl)-3-azabicyclo[3.1.0]hexan-6-yl)methanamine]",–
< 500,< 1000,–,"NCC1(c2ncccn2)C2CCN(c3nc4nc(Sc5cccnc5C(F)(F)F)cnc4[nH]3)CC21 (centres unmarked) [Example 66, (7-(pyrimidin-2-yl)-3-(5-((2-(trifluoromethyl)pyridin-3-yl)thio)-1H-imidazo[4,5-b]pyrazin-2-yl)-3-azabicyclo[4.1.0]heptan-7-yl)methanamine]",–
< 500,< 1000,–,"Cc1nccc(Sc2cnc(N3CC[C@@H]4[C@H](C3)[C@@]4(CN)c3cc(F)ccc3F)cn2)c1F [Example 424, ((1S,6R,7R)-7-(2,5-difluorophenyl)-3-(5-((3-fluoro-2-methylpyridin-4-yl)thio)pyrazin-2-yl)-3-azabicyclo[4.1.0]heptan-7-yl)methanamine]",–
< 500,< 1000,–,"NC[C@]1(c2ccccc2F)[C@@H]2CCN(c3cnc4c(N5CC6(CCC6)c6ncccc65)n[nH]c4n3)C[C@@H]21 [Example 270, ((1S,6R,7R)-7-(2-fluorophenyl)-3-(3-(spiro[cyclobutane-1,3′-pyrrolo[3,2-b]pyridin]-1′(2′H)-yl)-1H-pyrazolo[3,4-b]pyrazin-6-yl)-3-azabicyclo[4.1.0]heptan-7-yl)methanamine]",–
< 500,< 1000,–,"NC[C@]1(c2ccccc2F)[C@@H]2CCN(c3cnc4c(-c5ccc6ccncc6c5)n[nH]c4n3)C[C@@H]21 [Example 248, ((1S,6R,7R)-7-(2-fluorophenyl)-3-(3-(isoquinolin-7-yl)-1H-pyrazolo[3,4-b]pyrazin-6-yl)-3-azabicyclo[4.1.0]heptan-7-yl)methanamine]",–
< 500,–,< 1000,Cc1csc(C2(CN)[C@@H]3CN(c4cnc5c(-c6ccc7nn(CC#N)cc7c6Cl)n[nH]c5n4)C[C@@H]32)n1 (some centres unmarked) [Example 478],–
< 500,–,< 1000,NC[C@]1(c2ccccc2F)[C@@H]2CCN(c3cnc4c(-c5ccc6c(c5Cl)NCCO6)n[nH]c4n3)C[C@@H]21 [Example 311],–
< 500,< 1000,–,"Cn1cc(C2(CN)C3CCN(c4cnc5c(-c6cccc(Cl)c6Cl)n[nH]c5n4)CC32)nn1 (centres unmarked) [Example 13, (3-(3-(2,3-dichlorophenyl)-1H-pyrazolo[3,4-b]pyrazin-6-yl)-7-(1-methyl-1H-1,2,3-triazol-4-yl)-3-azabicyclo[4.1.0]heptan-7-yl)methanamine]",–
< 500,< 1000,–,"NC[C@]1(c2ccccc2F)[C@@H]2CCN(c3cnc4c(-c5cc(F)cc(F)c5)n[nH]c4n3)C[C@@H]21 [Example 330, ((1S,6R,7R)-3-(3-(3,5-difluorophenyl)-1H-pyrazolo[3,4-b]pyrazin-6-yl)-7-(2-fluorophenyl)-3-azabicyclo[4.1.0]heptan-7-yl)methanamine]",–
< 500,–,< 1000,Cc1csc([C@@]2(CN)[C@@H]3CN(c4cnc5c(-c6ccnc7c(F)cccc67)n[nH]c5n4)C[C@@H]32)n1 [Example 459],–
< 500,–,< 1000,Cc1csc([C@@]2(CN)[C@@H]3CN(c4cnc5c(-c6ccc7cn(C(F)F)nc7c6Cl)n[nH]c5n4)C[C@@H]32)n1 [Example 464],–
< 500,< 1000,–,"NC[C@]1(c2ccccc2F)[C@@H]2CCN(c3cnc4c(-c5ccc6ccc(=O)[nH]c6c5Cl)n[nH]c4n3)C[C@@H]21 [Example 237, 7-(6-((1S,6R,7R)-7-(aminomethyl)-7-(2-fluorophenyl)-3-azabicyclo[4.1.0]heptan-3-yl)-1H-pyrazolo[3,4-b]pyrazin-3-yl)-8-chloroquinolin-2(1H)-one]",–
< 500,> 5000,–,"NC[C@]1(c2ccccc2F)[C@@H]2CCN(c3cnc4c(ccn4-c4ccnc5ccccc45)n3)C[C@@H]21 [Example 382, ((1S,6R,7R)-7-(2-fluorophenyl)-3-(5-(quinolin-4-yl)-5H-pyrrolo[2,3-b]pyrazin-2-yl)-3-azabicyclo[4.1.0]heptan-7-yl)methanamine]",–
< 500,< 1000,–,"NC[C@]1(c2ccccc2F)[C@@H]2CCN(c3cnc4c(-c5ccnc(-n6cccc6)c5Cl)n[nH]c4n3)C[C@@H]21 [Example 522, ((1S,6R,7R)-3-(3-(3-chloro-2-(1H-pyrrol-1-yl)pyridin-4-yl)-1H-pyrazolo[3,4-b]pyrazin-6-yl)-7-(2-fluorophenyl)-3-azabicyclo[4.1.0]heptan-7-yl)methanamine]",–
< 500,< 1000,–,"COc1ccc(-c2n[nH]c3nc(N4CC[C@@H]5[C@H](C4)[C@@]5(CN)c4cccc(F)c4F)cnc23)c2cccnc12 [Example 183, ((1S,6R,7R)-7-(2,3-difluorophenyl)-3-(3-(8-methoxyquinolin-5-yl)-1H-pyrazolo[3,4-b]pyrazin-6-yl)-3-azabicyclo[4.1.0]heptan-7-yl)methanamine]",–
< 500,< 1000,–,"Cn1c(-c2n[nH]c3nc(N4CC[C@@H]5[C@H](C4)[C@@]5(CN)c4ccccc4F)cnc23)cccc1=O [Example 198, 6-(6-((1S,6R,7R)-7-(aminomethyl)-7-(2-fluorophenyl)-3-azabicyclo[4.1.0]heptan-3-yl)-1H-pyrazolo[3,4-b]pyrazin-3-yl)-1-methylpyridin-2(1H)-one]",–
< 500,< 1000,–,"CC(O)c1ccc(-c2n[nH]c3nc(N4CC[C@@H]5[C@H](C4)[C@@]5(CN)c4ccccc4F)cnc23)c2cccnc12 (stereo partly drawn) [Example 142, 1-(5-(6-((1S,6R,7R)-7-(aminomethyl)-7-(2-fluorophenyl)-3-azabicyclo[4.1.0]heptan-3-yl)-1H-pyrazolo[3,4-b]pyrazin-3-yl)quinolin-8-yl)ethan-1-ol]",–
< 500,< 1000,–,"Cn1cc2c(Cl)c(-c3n[nH]c4nc(N5CC[C@@H]6[C@H](CC5)C6(CN)c5ccccc5F)cnc34)ccc2n1 (stereo partly drawn) [Example 404, ((1R,7S)-4-(3-(4-chloro-2-methyl-2H-indazol-5-yl)-1H-pyrazolo[3,4-b]pyrazin-6-yl)-8-(2-fluorophenyl)-4-azabicyclo[5.1.0]octan-8-yl)methanamine]",–
< 500,< 1000,–,"CN1Cc2cc(-c3n[nH]c4nc(N5CC[C@@H]6[C@H](C5)[C@@]6(CN)c5ccccc5F)cnc34)ccc2C1=O [Example 244, 5-(6-((1S,6R,7R)-7-(aminomethyl)-7-(2-fluorophenyl)-3-azabicyclo[4.1.0]heptan-3-yl)-1H-pyrazolo[3,4-b]pyrazin-3-yl)-2-methylisoindolin-1-one]",–

SMILES,IC50 [1] [nM],"IC50 [2, 3] [nM]","IC50 [2, 4] [nM]","IC50 ([2]; Homo sapiens, KYSE-520, 2 h) [nM]"
"Cc1csc(C2(CN)C3CCN(c4cnc5c(-c6ccc(OS(=O)(=O)F)c7ccccc67)n[nH]c5n4)CC32)n1 (centres unmarked) [Example 103, 4-(6-(7-(aminomethyl)-7-(4-methylthiazol-2-yl)-3-azabicyclo[4.1.0]heptan-3-yl)-1H-pyrazolo[3,4-b]pyrazin-3-yl)naphthalen-1-yl sulfurofluoridate]",< 500,–,–,< 1000

# Source: patent US20240109900A1, “AZABICYCLIC SHP2 INHIBITORS” (IRBM S.P.A., priority 2021, published 2024)
